We go through one compound from article PMC2990764, “Evolution of Allosteric Citrate Binding Sites on 6-phosphofructo-1-kinase” (PLoS ONE, 2010).

Holding throughout (experiment): coupled spectrophotometric PFK1 assay ([…] nm) with purified enzyme
Assay type in all cases: biochemical

Test [1] has as its target T1, human muscle type 6-phosphofructo-1-kinase (PFK-M) (Homo sapiens, UniProt P08237).
T1 construct: gene PFKM; recombinant native human PFK-M expressed in E. coli RL257
T1 sequence (P08237 2-780): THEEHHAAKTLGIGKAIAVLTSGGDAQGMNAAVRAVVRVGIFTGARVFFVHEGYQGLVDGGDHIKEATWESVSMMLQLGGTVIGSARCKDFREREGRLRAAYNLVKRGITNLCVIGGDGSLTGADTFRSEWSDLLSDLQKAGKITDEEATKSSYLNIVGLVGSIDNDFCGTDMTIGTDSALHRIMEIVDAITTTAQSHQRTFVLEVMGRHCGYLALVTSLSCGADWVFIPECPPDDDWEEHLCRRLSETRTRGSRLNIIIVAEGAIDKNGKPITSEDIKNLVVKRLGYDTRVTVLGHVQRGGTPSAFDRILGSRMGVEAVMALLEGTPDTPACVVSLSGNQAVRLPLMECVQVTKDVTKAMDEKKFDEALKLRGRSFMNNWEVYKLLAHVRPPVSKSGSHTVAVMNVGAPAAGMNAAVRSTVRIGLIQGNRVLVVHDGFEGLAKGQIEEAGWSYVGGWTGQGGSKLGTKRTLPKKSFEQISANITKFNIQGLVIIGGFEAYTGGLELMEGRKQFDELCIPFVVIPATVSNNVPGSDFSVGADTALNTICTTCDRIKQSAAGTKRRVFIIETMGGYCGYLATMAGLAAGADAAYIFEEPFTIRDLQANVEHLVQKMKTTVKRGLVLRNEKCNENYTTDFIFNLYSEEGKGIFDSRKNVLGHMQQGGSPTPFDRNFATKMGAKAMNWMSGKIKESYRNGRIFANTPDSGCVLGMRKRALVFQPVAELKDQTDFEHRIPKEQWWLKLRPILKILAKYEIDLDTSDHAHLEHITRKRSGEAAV

Test [2] has as its target T2, human muscle type 6-phosphofructo-1-kinase (PFK-M) (Homo sapiens, UniProt P08237, K617A).
T2 construct: gene PFKM; recombinant human PFK-M mutant expressed in E. coli RL257
T2 sequence (P08237 2-780 K617A): T1 sequence (P08237 2-780) with K616A

For test [3], the target named is T3, human muscle type 6-phosphofructo-1-kinase (PFK-M) (Homo sapiens, UniProt P08237, K557R).
T3 construct: gene PFKM; recombinant human PFK-M mutant expressed in E. coli RL257
T3 sequence (P08237 2-780 K557R): T1 sequence (P08237 2-780) with K556R

Structures are written as SMILES. Residue numbers refer to the chain shown, from its start.

As usually defined, the Ki is a measure of affinity in units of concentration, obtained from inhibition or displacement.

Turning to `O=C(O)CC(O)(CC(=O)O)C(=O)O` [citrate], the Ki in test [1] was 50 µM; in test [2], 500 µM; in test [3], 300 µM.
